The source made the active and inactive calls.

Common to all, as to format: functional
Assay [1] concerns the target T1, Replicative DNA helicase DnaB (Mycobacterium tuberculosis, UniProt P9WMR3).
T1 sequence (P9WMR3 whole entry): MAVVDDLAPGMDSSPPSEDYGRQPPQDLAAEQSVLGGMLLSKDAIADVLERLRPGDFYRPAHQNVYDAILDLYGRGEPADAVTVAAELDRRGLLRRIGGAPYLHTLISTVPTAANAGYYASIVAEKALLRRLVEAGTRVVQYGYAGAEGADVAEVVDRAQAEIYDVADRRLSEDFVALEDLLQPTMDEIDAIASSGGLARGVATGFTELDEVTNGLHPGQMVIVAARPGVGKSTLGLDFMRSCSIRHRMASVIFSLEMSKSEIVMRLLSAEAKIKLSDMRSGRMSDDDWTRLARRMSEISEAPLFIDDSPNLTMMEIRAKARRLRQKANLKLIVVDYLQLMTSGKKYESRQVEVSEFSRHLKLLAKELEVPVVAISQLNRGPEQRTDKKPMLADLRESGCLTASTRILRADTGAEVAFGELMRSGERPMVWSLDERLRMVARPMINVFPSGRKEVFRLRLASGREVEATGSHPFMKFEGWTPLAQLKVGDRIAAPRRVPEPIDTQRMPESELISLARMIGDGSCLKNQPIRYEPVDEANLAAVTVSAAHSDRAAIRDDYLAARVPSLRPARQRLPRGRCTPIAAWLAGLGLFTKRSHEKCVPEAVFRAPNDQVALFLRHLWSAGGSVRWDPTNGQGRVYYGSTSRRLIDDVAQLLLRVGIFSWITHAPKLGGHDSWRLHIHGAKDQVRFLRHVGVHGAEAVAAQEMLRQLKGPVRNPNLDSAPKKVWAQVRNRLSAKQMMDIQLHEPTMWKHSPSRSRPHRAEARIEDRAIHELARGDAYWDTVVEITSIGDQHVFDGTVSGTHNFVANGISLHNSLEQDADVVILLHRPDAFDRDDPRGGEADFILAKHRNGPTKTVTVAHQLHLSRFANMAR
The assay can be described thus: DnaB intein splicing inhibitors, dose response, biochemical, cell-free fluorescence (AID 449749).

The target in the next assay is T2, Protein skinhead-1 (Caenorhabditis elegans, UniProt P34707).
T2 sequence (P34707 whole entry): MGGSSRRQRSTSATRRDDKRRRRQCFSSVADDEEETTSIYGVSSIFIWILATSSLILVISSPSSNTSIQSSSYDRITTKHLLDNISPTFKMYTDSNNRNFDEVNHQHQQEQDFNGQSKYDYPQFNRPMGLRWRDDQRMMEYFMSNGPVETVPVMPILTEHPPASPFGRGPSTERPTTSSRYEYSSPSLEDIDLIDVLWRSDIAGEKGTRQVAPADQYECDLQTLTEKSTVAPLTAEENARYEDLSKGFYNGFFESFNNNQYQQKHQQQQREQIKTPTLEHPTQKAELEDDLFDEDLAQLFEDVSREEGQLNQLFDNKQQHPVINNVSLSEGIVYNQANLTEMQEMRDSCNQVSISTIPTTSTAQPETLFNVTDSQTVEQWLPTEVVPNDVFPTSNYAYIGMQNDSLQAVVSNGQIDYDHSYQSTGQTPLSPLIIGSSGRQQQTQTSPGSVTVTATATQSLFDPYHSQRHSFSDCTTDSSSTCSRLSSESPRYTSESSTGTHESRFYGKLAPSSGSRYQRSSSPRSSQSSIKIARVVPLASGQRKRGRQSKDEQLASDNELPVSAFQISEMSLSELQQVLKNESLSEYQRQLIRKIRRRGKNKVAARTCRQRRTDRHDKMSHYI

The target of the next assay is T3, Protein RecA (Mycobacterium tuberculosis, UniProt P9WHJ3).
T3 sequence (P9WHJ3 whole entry): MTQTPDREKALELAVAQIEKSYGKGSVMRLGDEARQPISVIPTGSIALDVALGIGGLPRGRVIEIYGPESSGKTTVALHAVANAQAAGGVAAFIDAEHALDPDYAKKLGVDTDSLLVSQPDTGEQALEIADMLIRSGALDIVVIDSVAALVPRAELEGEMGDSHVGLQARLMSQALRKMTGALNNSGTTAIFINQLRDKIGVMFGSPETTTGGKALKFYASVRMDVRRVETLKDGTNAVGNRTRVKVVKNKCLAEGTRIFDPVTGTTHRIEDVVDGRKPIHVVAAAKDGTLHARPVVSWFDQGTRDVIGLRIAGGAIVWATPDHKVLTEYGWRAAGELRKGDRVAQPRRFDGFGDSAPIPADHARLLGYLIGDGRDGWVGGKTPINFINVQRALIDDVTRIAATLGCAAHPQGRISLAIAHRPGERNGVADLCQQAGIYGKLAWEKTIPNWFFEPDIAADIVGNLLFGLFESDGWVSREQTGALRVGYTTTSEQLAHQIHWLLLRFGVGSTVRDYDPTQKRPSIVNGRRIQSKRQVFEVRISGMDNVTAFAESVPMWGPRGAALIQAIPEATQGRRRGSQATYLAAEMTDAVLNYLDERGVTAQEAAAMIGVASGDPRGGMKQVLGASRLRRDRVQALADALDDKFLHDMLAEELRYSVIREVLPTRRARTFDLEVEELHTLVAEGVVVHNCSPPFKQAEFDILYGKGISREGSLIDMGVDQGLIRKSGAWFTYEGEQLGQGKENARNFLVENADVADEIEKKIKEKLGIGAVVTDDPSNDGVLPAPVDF
Put plainly: Fluorescence Cell-Free Homogeneous Dose Retest to Identify Inhibitors of RecA-Intein Splicing Activity. [Related pubchem assays (depositor defined):AID2097, AID2223, AID489010, AID492950].

The next assay addresses T4, Caspase-3 (Homo sapiens, UniProt P42574).
T4 sequence (P42574 whole entry): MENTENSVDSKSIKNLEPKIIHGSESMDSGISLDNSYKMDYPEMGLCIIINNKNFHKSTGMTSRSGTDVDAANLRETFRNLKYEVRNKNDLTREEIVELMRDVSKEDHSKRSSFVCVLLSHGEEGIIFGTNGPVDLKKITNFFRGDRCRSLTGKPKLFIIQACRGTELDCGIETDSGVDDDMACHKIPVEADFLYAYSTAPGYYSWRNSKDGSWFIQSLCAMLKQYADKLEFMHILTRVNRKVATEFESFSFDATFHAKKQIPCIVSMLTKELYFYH

In general, AC50 refers to the midpoint of the concentration-response curve, whichever way the signal moves. The term IC50 denotes the concentration needed to halve the response being measured. By EC50 is commonly meant the concentration at which the effect is half-maximal. On to `CC1CC(C)CN(C(=O)c2ccc3c(c2NCCO)C(=O)c2ccccc2C3=O)C1` (stereo unspecified), for which, in assay [1], the concentration at half-maximal activity (AC50) was 14.5 µM (active). Moreover, on Protein skinhead-1, the IC50 is > 100 µM (inactive). For the same molecule, the EC50 on Protein RecA was 20 µM (active).

On to `CCC(=O)N(C1=C(NC)C(=O)c2ccccc2C1=O)C(C)C`, for which the concentration at half-maximal activity (AC50) in assay [1] was 24.5 µM (active). Further, the half-maximal inhibitory concentration (IC50) on Caspase-3 is 6.86 µM (active). In addition, the 50% effective concentration (EC50) on Protein RecA was 9.21 µM (active).

Source of the values: ChEMBL document CHEMBL1201862, “PubChem BioAssay data set” (2004).
